Measured values as given in PubChem BioAssay AID248 (DTP/NCI, 2004).
Values joined by “and” are separate entries in the source; they are usually repeats but may differ in a detail not shown here. Identical values can stand only once. Toxic doses and inconclusive results are not listed. No stated cut-off is given here; in the data, active means T/C of 150% or more; inactive means T/C below 125%.

Test system: L1210 leukemia ip in BDF1 mice, survival T/C
Assay: NCI In Vivo Anticancer Drug Screen. Data for tumor model L1210 Leukemia (intraperitoneal) in B6D2F1 (BDF1) mice
Conditions: endpoint: mean survival time, higher = longer survival
Outline: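 Antitumor effect is assessed in tumor-bearing animals. Survival in the compound arm is compared with a vehicle-dosed control arm and expressed as their quotient.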

[1] = dose: 200.0 mg/kg/injection, schedule: Q01DX009 (ip), vehicle: gum acacia
[2] = dose: 100.0 mg/kg/injection, schedule: Q01DX009 (ip), vehicle: saline
[3] = dose: 100.0 mg/kg/injection, schedule: Q04DX003 (ip), vehicle: saline
[4] = dose: 200.0 mg/kg/injection, schedule: Q01DX009 (ip), vehicle: saline
[5] = dose: 200.0 mg/kg/injection, schedule: Q04DX003 (ip), vehicle: saline
[6] = dose: 100.0 mg/kg/injection, schedule: Q04DX003 (ip), vehicle: saline with Tween-80
[7] = dose: 200.0 mg/kg/injection, schedule: Q04DX003 (ip), vehicle: saline with Tween-80
[8] = dose: 400.0 mg/kg/injection, schedule: Q04DX003 (ip), vehicle: saline with Tween-80
[9] = dose: 100.0 mg/kg/injection, schedule: Q04DX003 (ip), vehicle: Klucel (hydroxypropylcellulose) (HPC)
[10] = dose: 200.0 mg/kg/injection, schedule: Q04DX003 (ip), vehicle: Klucel (hydroxypropylcellulose) (HPC)
[11] = dose: 400.0 mg/kg/injection, schedule: Q04DX003 (ip), vehicle: Klucel (hydroxypropylcellulose) (HPC)
[12] = dose: 75.0 mg/kg/injection, schedule: Q01DX001 (ip), vehicle: saline
[13] = dose: 150.0 mg/kg/injection, schedule: Q01DX001 (ip), vehicle: saline
[14] = dose: 100.0 mg/kg/injection, schedule: Q01DX001 (ip), vehicle: carboxymethylcellulose (CMC)
[15] = dose: 200.0 mg/kg/injection, schedule: Q01DX001 (ip), vehicle: carboxymethylcellulose (CMC)
[16] = dose: 400.0 mg/kg/injection, schedule: Q01DX001 (ip), vehicle: carboxymethylcellulose (CMC)
[17] = dose: 100.0 mg/kg/injection, schedule: Q01DX009 (ip), vehicle: Klucel (hydroxypropylcellulose) (HPC)
[18] = dose: 200.0 mg/kg/injection, schedule: Q01DX009 (ip), vehicle: Klucel (hydroxypropylcellulose) (HPC)
[19] = dose: 400.0 mg/kg/injection, schedule: Q01DX009 (ip), vehicle: Klucel (hydroxypropylcellulose) (HPC)
[20] = dose: 12.5 mg/kg/injection, schedule: Q01DX009 (ip), vehicle: Klucel (hydroxypropylcellulose) (HPC)
[21] = dose: 25.0 mg/kg/injection, schedule: Q01DX009 (ip), vehicle: Klucel (hydroxypropylcellulose) (HPC)
[22] = dose: 100.0 mg/kg/injection, schedule: Q01DX001 (ip), vehicle: saline

Measured: T/C

C=CCC1CC2(C)C(CCC3C2CCC2(C)C(OC(C)=O)CCC32)CC1=O (stereo not given)
inactive: dose: 10.0 mg/kg/injection, schedule: Q01DX009 (ip), vehicle: gum acacia 89 % of control | [1] 88 % of control

CCOC(=O)CCN1CCCCC1
inactive: [2] 101 % of control | [3] 93 % of control | [4] 98 % of control | [5] 97 % of control | dose: 400.0 mg/kg/injection, schedule: Q01DX009 (ip), vehicle: saline 104 % of control | dose: 400.0 mg/kg/injection, schedule: Q04DX003 (ip), vehicle: saline 103 % of control

O=Cc1cc([N+](=O)[O-])ccc1OCC(=O)O
inactive: [6] 103 % of control | [7] 92 % of control | [8] 93 % of control

C=CCNC(=O)C(Br)(CC)CC
inactive: [2] 92 % of control | [3] 96 % of control | [4] 92 % of control | [5] 96 % of control

OC1c2ccccc2C=Cc2ccccc21
inactive: [9] 104 % of control | [10] 101 % of control | [11] 101 % of control

Nc1ccc(OCCCc2c(N)nc(N)nc2N)c(Cl)c1
inactive: [9] 96 % of control | [10] 94 % of control | [11] 97 % of control

CCc1ncc(N2C3CCCC2CC(=O)C3)[nH]1
inactive: [12] 98 % of control | [13] 98 % of control

COc1ccc(-c2ccccc2)cc1S
inactive: dose: 50.0 mg/kg/injection, schedule: Q01DX001 (ip), vehicle: carboxymethylcellulose (CMC) 95 % of control | [14] 98 % of control | [15] 93 % of control | [16] 98 % of control

CCS(=O)(=O)c1ccc(NC(=O)OC(C)(C)C)cc1
inactive: [14] 94 % of control | [15] 94 % of control | [16] 100 % of control

CCC[CH2][Sn]1([CH2]CCC)[CH2]CC(=O)[O]1
inactive: dose: 100.0 mg/kg/injection, schedule: Q04DX002 (ip), vehicle: saline with Tween-80 103 % of control | dose: 200.0 mg/kg/injection, schedule: Q04DX002 (ip), vehicle: saline with Tween-80 95 % of control | dose: 400.0 mg/kg/injection, schedule: Q04DX002 (ip), vehicle: saline with Tween-80 92 % of control

CC1CN=C(Cc2ccc(NC(=O)c3ccc(C(=O)Nc4ccc(CC5=NCC(C)N5)cc4)cc3)cc2)N1 (stereo not given)
inactive: dose: 3.75 mg/kg/injection, schedule: Q01DX Z (ip), vehicle: water 91 % of control | dose: 7.5 mg/kg/injection, schedule: Q01DX Z (ip), vehicle: water 101 % of control

CCOc1ccc(/C=N/NC(=O)COCC(=O)N/N=C/c2ccc(OCC)c(OC)c2)cc1OC
inactive: [17] 92 % of control | [18] 87 % of control | [19] 103 % of control

CC/C(=C\c1ccc(Cl)cc1)[N+](=O)[O-]
inactive: [20] 98 % of control | [21] 100 % of control | dose: 25.0 mg/kg/injection, schedule: Q04DX003 (ip), vehicle: Klucel (hydroxypropylcellulose) (HPC) 100 % of control | dose: 50.0 mg/kg/injection, schedule: Q01DX009 (ip), vehicle: Klucel (hydroxypropylcellulose) (HPC) 88 % of control | dose: 50.0 mg/kg/injection, schedule: Q04DX003 (ip), vehicle: Klucel (hydroxypropylcellulose) (HPC) 105 % of control | [9] 101 % of control and 111 % of control

c1ccc2c(c1)ncc1cccn12
inactive: [22] 103 % of control | dose: 200.0 mg/kg/injection, schedule: Q01DX001 (ip), vehicle: saline 103 % of control | dose: 400.0 mg/kg/injection, schedule: Q01DX001 (ip), vehicle: saline 103 % of control

CCCCCCCCCCC/C=N\[N+](C)(C)C
inactive: [20] 108 % of control | [21] 95 % of control

O=C(CC(=O)c1ccccc1)Nc1ccccc1
inactive: dose: 100.0 mg/kg/injection, schedule: Q01DX001 (ip), vehicle: gum acacia 103 % of control and 104 % of control | dose: 100.0 mg/kg/injection, schedule: Q01DX009 (ip), vehicle: gum acacia 95 % of control and 104 % of control | dose: 100.0 mg/kg/injection, schedule: Q04DX002 (ip), vehicle: gum acacia 100 % of control and 88 % of control | dose: 100.0 mg/kg/injection, schedule: Q04DX003 (ip), vehicle: gum acacia 96 % of control and 91 % of control | dose: 200.0 mg/kg/injection, schedule: Q01DX001 (ip), vehicle: gum acacia 96 % of control and 97 % of control | [1] 92 % of control | dose: 200.0 mg/kg/injection, schedule: Q04DX002 (ip), vehicle: gum acacia 98 % of control and 90 % of control | dose: 200.0 mg/kg/injection, schedule: Q04DX003 (ip), vehicle: gum acacia 96 % of control and 88 % of control | dose: 400.0 mg/kg/injection, schedule: Q01DX001 (ip), vehicle: gum acacia 92 % of control and 93 % of control | dose: 400.0 mg/kg/injection, schedule: Q01DX009 (ip), vehicle: gum acacia 102 % of control | dose: 400.0 mg/kg/injection, schedule: Q04DX002 (ip), vehicle: gum acacia 94 % of control and 91 % of control | dose: 400.0 mg/kg/injection, schedule: Q04DX003 (ip), vehicle: gum acacia 93 % of control and 94 % of control

CC1(C)N=C(N)N=C(N)N1c1ccc(C#N)cc1
inactive: [22] 100 % of control

O=C(CCN1CCCCCCC1)c1cccc([N+](=O)[O-])c1
inactive: dose: 25.0 mg/kg/injection, schedule: Q04DX003 (ip), vehicle: saline 97 % of control | dose: 50.0 mg/kg/injection, schedule: Q01DX009 (ip), vehicle: saline 101 % of control | dose: 50.0 mg/kg/injection, schedule: Q04DX003 (ip), vehicle: saline 104 % of control | [2] 91 % of control | [3] 97 % of control and 105 % of control

CC/C=C(\C)C1(CC)C(=O)NC(=O)NC1=O
inactive: [12] 102 % of control | [13] 95 % of control

O=c1[nH]c2ccncc2c(=O)n1O
inactive: [17] 94 % of control | [18] 104 % of control | [19] 94 % of control

[O-][n+]1c2ccccc2c(Oc2ccccc2)c2ccc3ccccc3c21
inactive: [6] 95 % of control | [8] 92 % of control

CC(=O)N(C)c1ccc(NC(=O)Nc2cccc(C(F)(F)F)c2)cc1
inactive: dose: 100.0 mg/kg/injection, schedule: Q01DX009 (ip), vehicle: saline with Tween-80 94 % of control | dose: 200.0 mg/kg/injection, schedule: Q01DX009 (ip), vehicle: saline with Tween-80 99 % of control | dose: 400.0 mg/kg/injection, schedule: Q01DX009 (ip), vehicle: saline with Tween-80 97 % of control

CCOC(=O)/C(=N/N=C(N)N)c1c(C)[nH]c2ccccc12
inactive: dose: 15.0 mg/kg/injection, schedule: Q01DX Z (ip), vehicle: carboxymethylcellulose (CMC) 102 % of control | dose: 30.0 mg/kg/injection, schedule: Q01DX Z (ip), vehicle: carboxymethylcellulose (CMC) 100 % of control | dose: 60.0 mg/kg/injection, schedule: Q01DX Z (ip), vehicle: carboxymethylcellulose (CMC) 95 % of control and 100 % of control | dose: 120.0 mg/kg/injection, schedule: Q01DX Z (ip), vehicle: carboxymethylcellulose (CMC) 93 % of control and 100 % of control | dose: 240.0 mg/kg/injection, schedule: Q01DX Z (ip), vehicle: carboxymethylcellulose (CMC) 100 % of control | dose: 240.0 mg/kg/injection, schedule: Q01DX Z (sc), vehicle: carboxymethylcellulose (CMC) 112 % of control | dose: 480.0 mg/kg/injection, schedule: Q01DX Z (ip), vehicle: carboxymethylcellulose (CMC) 90 % of control | dose: 480.0 mg/kg/injection, schedule: Q01DX Z (sc), vehicle: carboxymethylcellulose (CMC) 114 % of control | dose: 960.0 mg/kg/injection, schedule: Q01DX Z (sc), vehicle: carboxymethylcellulose (CMC) 120 % of control | dose: 1920.0 mg/kg/injection, schedule: Q01DX Z (sc), vehicle: carboxymethylcellulose (CMC) 103 % of control

OC(CC(O)(C(F)(F)F)C(F)(F)F)c1ccccc1 (stereo not given)
inactive: [6] 103 % of control | [7] 96 % of control | [8] 97 % of control
